pEC50: −log10 of the molar value.
What follows are compounds tested on YAP/TAZ-TEAD transcription (assay: Reporter gene assay for measuring the inhibition of YAP/TAZ-TEAD transcription (TEAD-responsive element luciferase reporter in Hek293T cells)). Settings: Homo sapiens, HEK-293T, 24 hours incubation.
Type: cell-based
Description: Hek293T cells are cultured in DMEM supplemented with 10% fetal bovine serum, Sodium pyruvate, Sodium bicarbonate, L-glutamine. The cells are harvested and transiently transfected with TEAD-responsive element luciferase reporter. Transfected cells are plated in 384-wells plate containing pre-diluted compounds. After 24 hours incubation at 37° C./5% CO2, assay plates were cooled down to RT and levelled to an equal volume per well, prior to the addition of 25 uL luciferase substrate SteadyLite (Perkin Elmer)/well. The plate was shaken for 10 min at 600 rpm, centrifuged for 1 min at 500 rpm and measured with an Envision reader (PerkinElmer). The amount of relative light units produced by the TEAD reporter is used to calculated percent of inhibition.
The percent of reporter inhibition was calculated in the presence of a positive control inhibitor (100% inhibition) versus a condition with the presence of the vehicle basal activity of the reporter (0% inhibition). The ability of a test compound to inhibit this activity was determined as: Percentage inhibition=[1−((RLU determined in the presence of vehicle−RLU determined for sample with test compound present) divided by (RLU determined in the presence of vehicle−RLU determined for sample with positive control inhibitor))]*100
The activities of the example compounds tested are depicted in the table below. The activity ranges A, B and C refer to EC50 values in the reporter gene assay as described as follows: “A”: EC50<1 μM; “B”: 1 μM s EC50≤20 μM and “C”: EC50>20 μM, NT=not tested.

pEC50	Structure (SMILES)
4.70 to 6.00	C=CC(=O)NCc1cnc(-c2ccc(F)cc2)cc1-c1cnn(C(F)F)c1 [Cpd. No. 224, N-((4-(1-(difluoromethyl)-1H-pyrazol-4-yl)-6-(4-fluorophenyl)pyridin-3-yl)methyl)acrylamide]
> 6.00	C=CC(=O)NCc1cnc(-c2ccc(F)cc2)cc1-c1cn(C(F)F)nn1 [Cpd. No. 229, N-((4-(1-(difluoromethyl)-1H-1,2,3-triazol-4-yl)-6-(4-fluorophenyl)pyridin-3-yl)methyl)acrylamide]
< 4.70	C=CC(=O)NCc1c(-c2ccn(C)n2)cc(-c2ccc(F)cc2)[nH]c1=O [Cpd. No. 233, N-((6-(4-fluorophenyl)-4-(1-methyl-1H-pyrazol-3-yl)-2-oxo-1,2-dihydropyridin-3-yl)methyl)acrylamide]
> 6.00	C=CC(=O)NCc1[nH]c(=O)c(-c2ccc(F)cc2)cc1-c1ccn(C)n1 [Cpd. No. 234, N-((5-(4-fluorophenyl)-3-(1-methyl-1H-pyrazol-3-yl)-6-oxo-1,6-dihydropyridin-2-yl)methyl)acrylamide]
< 4.70	C=CC(=O)NCc1cc(=O)n(-c2ccc(F)cc2)cc1-c1ccn(C)n1 [Cpd. No. 235, N-((1-(4-fluorophenyl)-5-(1-methyl-1H-pyrazol-3-yl)-2-oxo-1,2-dihydropyridin-4-yl)methyl)acrylamide]
> 6.00	C=CC(=O)NCc1cnc(-c2ccc(F)cc2)cc1-n1cccn1 [Cpd. No. 239, N-((6-(4-fluorophenyl)-4-(1H-pyrazol-1-yl)pyridin-3-yl)methyl)acrylamide]
> 6.00	C=CC(=O)NC1(c2ccc(-c3ccc(F)cc3)cc2-c2ccn(C)n2)CC1 [Cpd. No. 256, N-(1-(4′-fluoro-3-(1-methyl-1H-pyrazol-3-yl)-[1,1′-biphenyl]-4-yl)cyclopropyl)acrylamide]
> 6.00	C=CC(=O)NC1CC1c1ccc(-c2ccccc2)cc1-c1ccn(C)n1 (centres unmarked) [Cpd. No. 257, N-(2-(3-(1-methyl-1H-pyrazol-3-yl)-[1,1′-biphenyl]-4-yl)cyclopropyl)acrylamide]
> 6.00	C=CC(=O)N1CCC(c2cc(-c3ccc(F)cc3)nc(-c3ccn(C(F)F)n3)c2)C1 (centres unmarked) [Cpd. No. 264, 1-(3-(2-(1-(difluoromethyl)-1H-pyrazol-3-yl)-6-(4-fluorophenyl)pyridin-4-yl)pyrrolidin-1-yl)prop-2-en-1-one]
> 6.00	C=CC(=O)N1CCC(c2cc(-c3ccc(F)cc3)cc(-c3ccn(C(F)F)n3)n2)C1 (centres unmarked) [Cpd. No. 265, 1-(3-(6-(1-(difluoromethyl)-1H-pyrazol-3-yl)-4-(4-fluorophenyl)pyridin-2-yl)pyrrolidin-1-yl)prop-2-en-1-one]
< 4.70	O=C(O)c1cncc(-c2cccc(-c3ccn(Cc4ccccc4)n3)c2)c1 [compound 001, 5-(3-(1-benzyl-1H-pyrazol-3-yl)phenyl)nicotinic acid]
> 6.00	NC(=O)c1cncc(-c2cccc(-c3ccn(Cc4ccccc4)n3)c2)c1 [compound 002, 5-(3-(1-benzyl-1H-pyrazol-3-yl)phenyl)nicotinamide]
4.70 to 6.00	Nc1cncc(-c2cccc(-c3ccn(Cc4ccccc4)n3)c2)c1 [compound 003, 5-(3-(1-benzyl-1H-pyrazol-3-yl)phenyl)pyridin-3-amine]
4.70 to 6.00	N#Cc1cncc(-c2cccc(-c3ccn(Cc4ccccc4)n3)c2)c1 [compound 005, 5-(3-(1-benzyl-1H-pyrazol-3-yl)phenyl)nicotinonitrile]
4.70 to 6.00	CCC(=O)Nc1cncc(-c2cccc(-c3ccn(Cc4ccccc4)n3)c2)c1 [compound 006, N-(5-(3-(1-benzyl-1H-pyrazol-3-yl)phenyl)pyridin-3-yl)propionamide]
> 6.00	CC(=O)Nc1cncc(-c2cccc(-c3ccn(Cc4ccccc4)n3)c2)c1 [compound 007, N-(5-(3-(1-benzyl-1H-pyrazol-3-yl)phenyl)pyridin-3-yl)acetamide]
4.70 to 6.00	C=CC(=O)Nc1ccccc1-c1cccc(-c2ccn(Cc3ccccc3)n2)c1 [compound 008, N-(3′-(1-benzyl-1H-pyrazol-3-yl)-[1,1′-biphenyl]-2-yl)acrylamide]
> 6.00	C=CC(=O)Nc1cc(-c2cccc(-c3ccn(Cc4ccccc4)n3)c2)ccn1 [compound 009, N-(4-(3-(1-benzyl-1H-pyrazol-3-yl)phenyl)pyridin-2-yl)acrylamide]
4.70 to 6.00	C=CC(=O)Nc1ccc(-c2cccc(-c3ccn(Cc4ccccc4)n3)c2)cn1 [compound 010, N-(5-(3-(1-benzyl-1H-pyrazol-3-yl)phenyl)pyridin-2-yl)acrylamide]
4.70 to 6.00	C=CC(=O)Nc1cncc(-c2cccc(-c3ccn(Cc4ccc(C(F)(F)F)cc4)n3)c2)c1 [compound 011, N-(5-(3-(1-(4-(trifluoromethyl)benzyl)-1H-pyrazol-3-yl)phenyl)pyridin-3-yl)acrylamide]
4.70 to 6.00	C=CC(=O)Nc1cncc(-c2cccc(-c3ccn(Cc4cccc(C(F)(F)F)c4)n3)c2)c1 [compound 012, N-(5-(3-(1-(3-(trifluoromethyl)benzyl)-1H-pyrazol-3-yl)phenyl)pyridin-3-yl)acrylamide]

pEC50	Structure (SMILES)
4.70 to 6.00	C=CC(=O)Nc1cncc(-c2cccc(-c3ccn(C)n3)c2)c1 [compound 013, N-(5-(3-(1-methyl-1H-pyrazol-3-yl)phenyl)pyridin-3-yl)acrylamide]
4.70 to 6.00	c1ccc(-c2cccc(-c3ccn(Cc4cccnc4)n3)c2)cc1 [compound 014, 3-((3-([1,1′-biphenyl]-3-yl)-1H-pyrazol-1-yl)methyl)pyridine]
< 4.70	c1ccc(-c2cccc(-c3ccnn3Cc3cccnc3)c2)cc1 [compound 015, 3-((5-([1,1′-biphenyl]-3-yl)-1H-pyrazol-1-yl)methyl)pyridine]
4.70 to 6.00	c1ccc(Cn2ccc(-c3cccc(-c4cncnc4)c3)n2)cc1 [compound 016, 5-(3-(1-benzyl-1H-pyrazol-3-yl)phenyl)pyrimidine]
4.70 to 6.00	c1ccc(Cn2nccc2-c2cccc(-c3cncnc3)c2)cc1 [compound 017, 5-(3-(1-benzyl-1H-pyrazol-5-yl)phenyl)pyrimidine]
4.70 to 6.00	Fc1cccc(Cn2ccc(-c3cccc(-c4ccccc4)c3)n2)c1 [compound 018, 3-([1,1′-biphenyl]-3-yl)-1-(3-fluorobenzyl)-1H-pyrazole]
4.70 to 6.00	COc1cccc(Cn2ccc(-c3cccc(-c4ccccc4)c3)n2)c1 [compound 019, 3-([1,1′-biphenyl]-3-yl)-1-(3-methoxybenzyl)-1H-pyrazole]
4.70 to 6.00	N#Cc1cccc(Cn2ccc(-c3cccc(-c4ccccc4)c3)n2)c1 [compound 020, 3-((3-([1,1′-biphenyl]-3-yl)-1H-pyrazol-1-yl)methyl)benzonitrile]
4.70 to 6.00	c1ccc(-c2cccc(-c3ccn(Cc4ccccn4)n3)c2)cc1 [compound 021, 2-((3-([1,1′-biphenyl]-3-yl)-1H-pyrazol-1-yl)methyl)pyridine]
4.70 to 6.00	c1ccc(-c2cccc(-c3ccn(Cc4ccncc4)n3)c2)cc1 [compound 022, 4-((3-([1,1′-biphenyl]-3-yl)-1H-pyrazol-1-yl)methyl)pyridine]
4.70 to 6.00	c1ccc(-c2cccc(-c3ccn(CCc4cccnc4)n3)c2)cc1 [compound 023]
4.70 to 6.00	Cn1ccc(Cn2ccc(-c3cccc(-c4ccccc4)c3)n2)cc1=O [compound 024, 4-((3-([1,1′-biphenyl]-3-yl)-1H-pyrazol-1-yl)methyl)-1-methylpyridin-2(1H)-one]
4.70 to 6.00	c1ccc(-c2cccc(-c3ccn(CCN4CCOCC4)n3)c2)cc1 [compound 025, 4-(2-(3-([1,1′-biphenyl]-3-yl)-1H-pyrazol-1-yl)ethyl)morpholine]
< 4.70	c1ccc(-c2cccc(-c3ccn(CC4CCOCC4)n3)c2)cc1 [compound 026, 3-([1,1′-biphenyl]-3-yl)-1-((tetrahydro-2H-pyran-4-yl)methyl)-1H-pyrazole]
4.70 to 6.00	N#Cc1ccc(Cn2ccc(-c3cccc(-c4ccccc4)c3)n2)cn1 [compound 027, 5-((3-([1,1′-biphenyl]-3-yl)-1H-pyrazol-1-yl)methyl)picolinonitrile]
4.70 to 6.00	NC(=O)c1ccc(Cn2ccc(-c3cccc(-c4ccccc4)c3)n2)cn1 [compound 028, 5-((3-([1,1′-biphenyl]-3-yl)-1H-pyrazol-1-yl)methyl)picolinamide]
4.70 to 6.00	NCc1ccc(Cn2ccc(-c3cccc(-c4ccccc4)c3)n2)cn1 [compound 029, (5-((3-([1,1′-biphenyl]-3-yl)-1H-pyrazol-1-yl)methyl)pyridin-2-yl)methanamine]
4.70 to 6.00	c1ccc(-c2cccc(-c3ccn(CC4CCNCC4)n3)c2)cc1 [compound 030, 4-((3-([1,1′-biphenyl]-3-yl)-1H-pyrazol-1-yl)methyl)piperidine]
4.70 to 6.00	CC(=O)N1CCC(Cn2ccc(-c3cccc(-c4ccccc4)c3)n2)CC1 [compound 031, 1-(4-((3-([1,1′-biphenyl]-3-yl)-1H-pyrazol-1-yl)methyl)piperidin-1-yl)ethan-1-one]
4.70 to 6.00	CN1CCC(Cn2ccc(-c3cccc(-c4ccccc4)c3)n2)CC1 [compound 032, 4-((3-([1,1′-biphenyl]-3-yl)-1H-pyrazol-1-yl)methyl)-1-methylpiperidine]

Reference: patent publication US12552772B2, “2-pyrazole anilines and related analogs for inhibiting YAP/TAZ-TEAD” (KATHOLIEKE UNIVERSITEIT LEUVEN, priority 2021, dated 2026)
